Tests used:
[1] = tested on: Human brain astroblastoma cell line U-87MG; assay: Tumor-suppressing effect on subcutaneously transplanted U-87MG tumors in nude mice (tumor weight, IRTW); assay type: in vivo, BALB/C-nu/nu mice; conditions: intraperitoneal injection; for Tumor-suppressing rate (%): IRTW vs model group; for Tumor weight: U-87MG tumor, end of experiment, mean±SD
Procedure: 4. Laboratory animals • Animal species: BALB/C-nu/nu mice • Animal grade: SPF grade • Gender and quantity:42 females • Animal age at the start of an experiment: 6 weeks old • Animal body weight at the start of an experiment: 18±2 g • Animal source: Vital River Laboratory Animal Technology Co., Ltd.
Cell source and cultivation conditions: Human brain astroblastoma cell line U-87MG: which came from the Cell Resource Center of the Shanghai Institutes for Biological Sciences (SIBS); medium: MEM medium including 1% penicillin-streptomycin sulfate mixed solution (100 ×) and 10% fetal bovine serum (FBS) (from Australia); cultivation conditions: 5% CO2 and 37° C.; and the cell line was frozen by Marine Biomedical Research Institute of Qingdao.
The cell line U-87MG stored in liquid nitrogen was recovered, inoculated in a corresponding medium including 10% FBS, 100 U/mL penicillin, and 100 […] streptomycin, and cultivated in the cell culture incubator at 37° C. and 5% CO2. The cells were passaged every two days.
After the cells were passaged four times, resulting cells were collected through digestion with 0.05% trypsin-EDTA, counted under a microscope, and resuspended with a medium to obtain a cell suspension with 5×10^7 cells/mL; a mouse was routinely disinfected, and 0.2 mL of the cell suspension was subcutaneously inoculated in an axillary region of a right forelimb of the mouse; and a resulting tumor tissue was aseptically taken out, weighed, diluted with a sodium chloride injection according to a mass-to-volume ratio of 1:4, and then ground, then a mouse was routinely disinfected, and 0.2 mL of a resulting suspension was subcutaneously inoculated in an axillary region of a right forelimb of the mouse for passage, where the passage was continuously conducted twice. During this period, the mice were raised normally, and the states and tumor growth conditions of the mice were observed and recorded every week.
When a tumor volume in a tumor-bearing mouse to be passaged was about 1,200 mm 3, a tumor was ground and transplanted by a same method for molding. After the tumor inoculation was completed, a body weight of a mouse was measured, and mice were randomly selected and divided into 6 groups with 7 mice per group. After tumor colonization, the administration was started, which was recorded as Day 1 (D1). […]
After the experiment was completed, tumor tissues of animals that died unexpectedly and surviving animals that were euthanized each were peeled off and weighed, and a tumor weight difference of each group was calculated to further calculate a tumor-suppressing rate (IRTW) according to the following formula: […]
It was required in this scheme that measured and observed data results were manually recorded in appropriate forms or directly acquired by a computer. […]

[2] = General clinical observation and body weight of tumor-bearing mice during administration; conditions: mouse, in vivo
Procedure: According to body weights, animals were randomly divided into 6 groups, with 7 animals per group.
Observed animals: All animals
Observation frequency and time: The animals were observed once before each time of administration during the experiment, and administration and observation results were recorded.
Observation content: including, but not limited to, tumor growth, animal mental states, eating and drinking conditions, or the like.
Detected animals: All animals
Detection time: A body weight of an animal was measured and recorded when grouping (namely, before the first administration) (D1), before each subsequent administration, and before euthanasia.
A body weight and relevant information of an animal were measured and recorded if the animal died unexpectedly.

[3] = 5-Fluorouracil 18 mg/kg, twice a week

Row | Structure (SMILES) | Tumor-suppressing rate (%) ([1]; TMZ 25 mg/kg, once every day) | Tumor weight ([1]; TMZ 25 mg/kg, once every day) | Body weight of mice during administration [2] | Tumor-suppressing rate (%) [1, 3] | Tumor weight [1, 3]
1 | Cn1nnc2c(C(N)=O)ncn2c1=O [TMZ, temozolomide] | 99.5% | 0.0134 ± 0.0091 | – | – | –
2 | O=c1[nH]cc(F)c(=O)[nH]1 [5-Fluorouracil] | – | – | reduced at a late stage of administration | 52.7% | 1.3305 ± 0.6525

— patent US20240058292A1, “PHARMACEUTICAL COMPOSITION FOR TREATING CANCER, AND PREPARATION METHOD AND USE THEREOF” (priority 2020, published 2024)
